Assay results reported in PMC6017630, “Identification of the NADPH Oxidase 4 Inhibiting Principle of Lycopus europaeus” (Molecules : A Journal of Synthetic Chemistry and Natural …, 2018).

Tests used:
NADPH oxidase 4 (Nox4) = molecular target: T1, NADPH oxidase 4 (Nox4) (Homo sapiens, UniProt Q9NPH5); assay: luminol chemiluminescence of ROS in HEK cells expressing Nox4, normalized to pcDNA cells; mitochondrial ROS scavenging counterscreen; format: cell-based
T1 sequence (Q9NPH5 1-578): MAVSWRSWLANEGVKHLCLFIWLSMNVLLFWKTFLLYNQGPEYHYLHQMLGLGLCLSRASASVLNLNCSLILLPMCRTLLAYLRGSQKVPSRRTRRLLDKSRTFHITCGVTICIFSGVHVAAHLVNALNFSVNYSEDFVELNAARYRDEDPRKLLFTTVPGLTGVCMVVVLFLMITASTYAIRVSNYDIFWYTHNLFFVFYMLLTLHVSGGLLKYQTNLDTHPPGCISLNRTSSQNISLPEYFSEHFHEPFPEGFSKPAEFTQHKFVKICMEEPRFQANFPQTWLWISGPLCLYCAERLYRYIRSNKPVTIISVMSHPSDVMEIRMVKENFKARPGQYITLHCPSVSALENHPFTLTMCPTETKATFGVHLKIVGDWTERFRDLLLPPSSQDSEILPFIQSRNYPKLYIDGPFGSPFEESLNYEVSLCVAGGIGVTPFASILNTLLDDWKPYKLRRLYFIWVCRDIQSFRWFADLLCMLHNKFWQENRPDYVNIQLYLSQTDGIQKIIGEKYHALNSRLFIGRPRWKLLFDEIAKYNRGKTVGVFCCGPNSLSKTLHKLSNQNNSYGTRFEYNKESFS

Nox5 = molecular target: T2, Nox5 (Homo sapiens, UniProt Q96PH1); assay: chemiluminescence of ROS in ionomycin-stimulated Nox5-transfected HEK cells; format: cell-based
T2 sequence (Q96PH1 1-765): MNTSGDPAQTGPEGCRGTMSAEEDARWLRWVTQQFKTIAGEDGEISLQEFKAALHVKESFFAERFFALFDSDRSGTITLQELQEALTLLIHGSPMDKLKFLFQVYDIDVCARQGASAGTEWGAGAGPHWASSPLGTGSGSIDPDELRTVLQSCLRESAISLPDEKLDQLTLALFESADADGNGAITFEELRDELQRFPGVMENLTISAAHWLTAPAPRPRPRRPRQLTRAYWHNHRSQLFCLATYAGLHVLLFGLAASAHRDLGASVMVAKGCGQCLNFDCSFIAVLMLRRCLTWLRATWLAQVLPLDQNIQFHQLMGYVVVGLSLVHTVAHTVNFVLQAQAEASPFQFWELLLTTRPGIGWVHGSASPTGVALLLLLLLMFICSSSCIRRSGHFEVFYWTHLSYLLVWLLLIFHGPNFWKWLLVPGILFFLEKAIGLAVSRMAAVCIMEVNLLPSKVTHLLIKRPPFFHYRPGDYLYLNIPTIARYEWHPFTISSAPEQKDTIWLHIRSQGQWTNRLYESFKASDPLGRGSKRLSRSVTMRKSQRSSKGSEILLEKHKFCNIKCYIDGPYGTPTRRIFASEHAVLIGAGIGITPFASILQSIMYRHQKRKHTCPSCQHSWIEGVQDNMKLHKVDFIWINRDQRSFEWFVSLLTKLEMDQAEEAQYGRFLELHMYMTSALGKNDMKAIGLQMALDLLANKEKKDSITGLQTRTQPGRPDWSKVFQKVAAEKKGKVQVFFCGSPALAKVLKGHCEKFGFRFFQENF
Excerpt: chemiluminescence of ROS in ionomycin-stimulated Nox5-transfected HEK cells on Nox5 | stably transfected Nox5 overexpressing HEK cells were stimulated with ionomycin. This activity could be quenched completely by DPI

Compound	IC50 (NADPH oxidase 4 (Nox4)) [µM]	chemiluminescence of ROS in ionomycin-stimulated Nox5-transfected HEK cells (Nox5)
O=C(/C=C/c1ccc(O)c(O)c1)O[C@H](Cc1ccc(O)c(O)c1)C(=O)O [RA, rosmarinic acid]	1	
c1ccc2c(c1)[I+]c1ccccc1-2 [DPI, diphenyleneiodonium]		stably transfected Nox5 overexpressing HEK cells were stimulated with ionomycin. This activity could be quenched completely by DPI
